The values that follow come from patent US10689429B2, “Double-acylated GLP-1 compounds” (Novo Nordisk A/S, priority 2014, dated 2020).

Data set [1] addresses T1, human GLP-1 receptor (Homo sapiens, UniProt P43220).
T1 construct: expressed in transfected cells; host or cells: membranes from BHK cells, parent line BHKTS13, clone FCW467-12A
The data set can be described thus: In vitro potency, CRE luciferase reporter gene assay in BHK cells expressing the human GLP-1 receptor.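 Also: firefly luciferase luminescence read after 3 h incubation at 37 °C, compounds tested in an eight-point series from 0.01 pM to 100 nM.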 It counts as cell-based. Conditions: average of duplicates.
Method: The in vitro potency is the measure of human GLP-1 receptor activation in a whole cell assay.
In vitro potency was determined by measuring the response of the human GLP-1 receptor in a reporter gene assay. The assay was performed in a stably transfected BHK cell line that expresses the human GLP-1 receptor and contains the DNA for the cAMP response element (CRE) coupled to a promoter and the gene for firefly luciferase (CRE luciferase). When the human GLP-1 receptor is activated it results in the production of cAMP, which in turn results in the luciferase protein being expressed. When assay incubation is completed the luciferase substrate (luciferin) is added and the enzyme converts luciferin to oxyluciferin to produce bioluminescence. The luminescence is measured as the readout for the assay.
An increase of the in vitro potency, EC50 value, in the presence of serum albumin would indicate an affinity to serum albumin and represents a method to predict a protracted pharmacokinetic profile of the test substance in animal models.
The cells were cultured at 5% CO2 in Cell Culture Medium. They were aliquoted and stored in liquid nitrogen. Before each assay an aliquot is taken up and washed twice in PBS before being suspended at the desired concentration in the assay specific buffer. For 96-well plates the suspension was made to give a final concentration of 5×10^3 cells/well.
Assay Medium consisted of DMEM w/o phenol red, 10 mM Hepes and 1× Glutamax. The 1% Assay Buffer consisted of 2% ovalbumin, 0.2% Pluronic F-68 and 2% HSA in Assay Medium. The 0% Assay Buffer consisted of 2% ovalbumin and 0.2% Pluronic F-68 in Assay Medium.
1) Cell stocks were thawed in a 37° C. water bath.
2) Cells were washed three times in PBS.
3) The cells were counted and adjusted to 5×10^3 cells/50 μl (1×10^5 cells/ml) in Assay Medium. A 50 μl aliquot of cells was transferred to each well in the assay plate.
4) Stocks of the test compounds and reference compounds were diluted to a concentration of 0.2 pM in 0% Assay Buffer for the 0% HSA CRE luciferase assay and 1% Assay Buffer for the 1% HSA CRE luciferase assay. […] Compounds were tested at the following final concentrations: 1×10^−7 M, 1×10^−8 M; 1×10^−9 M, 1×10^−10 M, 1×10^−11 M, 1×10^−12 M, 1×10^−13 M, and 1×10^−14 M. 6) The assay plate was incubated for 3 h in a 5% CO2 incubator at 37° C. […] 8) A 100 μl aliquot of steadylite plus reagent was added to each well of the assay plate (reagent was light sensitive). 9) Each assay plate was covered with aluminum foil to protect it from light and shaken for 30 min at room temperature. 10) Each assay plate was read in a Packard TopCount NXT instrument. Calculations and Results
The data from the TopCount instrument were transferred to GraphPad Prism software. The software performs a non-linear regression (log(agonist) vs response).
A minimum of two replicates was measured for each sample on separate assay plates. The reported values are averages of the duplicates. For some examples more than one assay was run and in this case the data reported are the averages of the averaged duplicates.

Data set [2] in a line: Pharmacokinetic study in mini pigs after i.v. administration. The data set is classed as in vivo. The settings on record: female, Göttingen, pig, plasma, iv, 2 nmol/kg; read-out: Minipig iv PK, t½ (converted).
Method: The purpose of this study is to determine the protraction in vivo of the GLP-1 derivatives after i.v. administration to mini pigs, i.e. the prolongation of their time in the body and thereby their time of action. This was done in pharmacokinetic (PK) studies, where the terminal half-life of the derivative in question was determined. By terminal half-life is generally meant the period of time it takes to halve a certain plasma concentration, measured after the initial distribution phase.
Female Göttingen mini pigs obtained from Ellegaard Göttingen Minipigs (Dalmose, Denmark) at approximately 5 months of age and weighing approximately 10 kg were used in the studies. The mini pigs were housed in pens with straw as bedding, four to six together in each pen and fed restrictedly once or twice daily with Altromin 9023 mini pig diet (Chr. Petersen A/S, DK-4100 Ringsted). The pigs were used for repeated pharmacokinetic studies with a suitable wash-out period between successive GLP-1 derivative dosings. An acclimatisation period of 1 week was allowed during which time the mini pigs were trained to be fixated on the back for blood sampling and in slings for i.v. dosing. All handling, dosing and blood sampling of the animals was performed by trained and skilled staff.
The GLP-1 derivatives were dissolved in 50 mM sodium phosphate, 70 mM sodium chloride, 0.05% tween 80, pH 7.4 to a concentration of approximately 20 nmol/ml. Intravenous injections (the volume corresponding to usually 2 nmol/kg, for example 0.1 ml/kg) of the compounds were given as intravenous injections via a Venflon inserted in an ear vein, while the animals were placed un-anaesthetised in a sling. The dose volume was 0.1 ml/kg, and blood was sampled at predefined time points for up till 13 days post dosing (samples were taken with a syringe from a jugular vein). Blood samples (for example 0.8 ml) were collected in EDTA buffer (8 mM) and then centrifuged at 4° C. and 2000 G for 10 minutes.
Individual plasma concentration-time profiles were analysed by a non-compartmental model in WinNonlin v. […] 6.2 or 6.3 (Pharsight Inc., Mountain View, Calif., USA), or other relevant software for PK analysis, and the resulting terminal half-lives determined.
Data set [3] can be described thus: Pharmacokinetic studies in Beagle dogs (i.v. and p.o.). Conditions: dog, plasma; for half-life: iv, 2 nmol/kg, read-out: Beagle dogs iv PK, t½ (converted). The data set is classed as in vivo.
Method: Pharmacokinetic (PK) studies in Beagle dogs were conducted in order to determine a) the protraction of the GLP-1 derivatives after i.v. administration, and b) the bioavailability of the GLP-1 derivatives after p.o. administration.
By protraction is meant the prolongation of the time in the body and thereby the time of action of the GLP-1 derivatives. This was done in pharmacokinetic (PK) studies, where the terminal half-life of the derivative in question was determined. By terminal half-life is generally meant the period of time it takes to halve a certain plasma concentration, measured after the initial distribution phase.
The dogs were housed in pens (12 hours light: 12 hours dark) with softwood based granules as bedding, two together in each pen and fed restrictedly once daily with […] ™ Struvite Management Diet (Dechra Veterinary Products, UK). Exercise was permitted daily, whenever possible. The dogs were used for repeated pharmacokinetic studies with a suitable wash-out period between successive GLP-1 derivative dosings. An acclimatisation period of 4 weeks was allowed during which time the dogs were trained. All handling, dosing and blood sampling of the animals was performed by trained and skilled staff. The dogs were fasted overnight before dosing and from 0 to 4 h after dosing, but had ad libitum access to water during the whole period.
The dogs were housed in social groups (12 hours light: 12 hours dark), and fed individually and restrictedly once daily with Royal Canin Medium Adult dog (Royal Canin Products, China Branch, or Brogaarden A/S, Denmark). Exercise and group social was permitted daily, whenever possible. The dogs were used for repeated pharmacokinetic studies with a suitable wash-out period between successive GLP-1 derivative dosings. An appropriate acclimatisation period was given prior to initiation of the first pharmacokinetic study. All handling, dosing and blood sampling of the animals was performed by trained and skilled staff. Before the studies the dogs were fasted overnight and from 0 to 4 h after dosing. […]
[4] abbreviates: EC50/pM (1% HSA), 1% HSA final assay concentration.

T1 sequence (P43220 24-463): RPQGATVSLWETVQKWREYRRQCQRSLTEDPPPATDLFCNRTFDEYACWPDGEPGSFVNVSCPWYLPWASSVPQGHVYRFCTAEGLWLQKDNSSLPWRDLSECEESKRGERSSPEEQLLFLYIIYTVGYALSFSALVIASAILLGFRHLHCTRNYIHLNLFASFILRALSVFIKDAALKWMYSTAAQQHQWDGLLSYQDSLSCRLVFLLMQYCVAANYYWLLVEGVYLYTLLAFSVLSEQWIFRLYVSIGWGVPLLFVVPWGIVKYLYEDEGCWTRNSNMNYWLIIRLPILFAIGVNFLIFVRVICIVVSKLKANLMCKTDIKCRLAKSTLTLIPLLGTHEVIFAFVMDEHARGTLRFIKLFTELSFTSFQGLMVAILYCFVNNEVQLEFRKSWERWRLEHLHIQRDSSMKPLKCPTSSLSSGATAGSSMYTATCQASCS

Take `CC[C@H](C)[C@H](NC(=O)[C@H](Cc1ccccc1)NC(=O)[C@H](CCC(=O)O)NC(=O)[C@H](CCCNC(=N)N)NC(=O)[C@H](C)NC(=O)[C@H](C)NC(=O)[C@H](CCC(N)=O)NC(=O)[C@H](CCC(=O)O)NC(=O)[C@H](CCC(=O)O)NC(=O)[C@H](CC(C)C)NC(=O)[C@H](Cc1ccc(O)cc1)NC(=O)[C@H](CO)NC(=O)[C@H](CO)NC(=O)[C@@H](NC(=O)[C@H](CC(=O)O)NC(=O)[C@H](CO)NC(=O)[C@@H](NC(=O)[C@H](Cc1ccccc1)NC(=O)[C@@H](NC(=O)CNC(=O)[C@H](CCC(=O)O)NC(=O)C(C)(C)NC(=O)[C@@H](N)Cc1c[nH]cn1)[C@@H](C)O)[C@@H](C)O)C(C)C)C(=O)N[C@@H](C)C(=O)N[C@@H](Cc1c[nH]c2ccccc12)C(=O)N[C@@H](CC(C)C)C(=O)N[C@H](C(=O)N[C@@H](CCCNC(=N)N)C(=O)NCC(=O)N[C@@H](CCCCNC(=O)COCCOCCNC(=O)COCCOCCNC(=O)CC[C@H](NC(=O)CCCCCCCCCCOc1ccc(C(=O)O)cc1)C(=O)O)C(=O)N[C@@H](CCCCNC(=O)COCCOCCNC(=O)COCCOCCNC(=O)CC[C@H](NC(=O)CCCCCCCCCCOc1ccc(C(=O)O)cc1)C(=O)O)C(=O)O)C(C)C` [Example 1, N{Epsilon-36}-[2-[2-[2-[[2-[2-[2-[[(4S)-4-carboxy-4-[11-(4-carboxyphenoxy)undecanoylamino]butanoyl]amino]ethoxy]ethoxy]acetyl]amino]ethoxy]ethoxy]acetyl], N{Epsilon-37}-[2-[2-[2-[[2-[2-[2-[[(4S)-4-carboxy-4-[11-(4-carboxyphenoxy)undecanoylamino]butanoyl]amino]ethoxy]ethoxy]acetyl]amino]ethoxy]ethoxy]acetyl]-[Aib8,Glu22,Arg26,Arg34,Lys36,Lys37]-GLP-1-(7-37)-peptide]: the 50% effective concentration (EC50) in data set [1] (EC50/pM (0% HSA), 0% HSA) turned out to be 1.2 pM; in data set [1] (setting [4]), 136 pM. The half-life is 103 h in data set [2] and 85 h in data set [3]. In data set [3] (po, absolute bioavailability (F), enteric coated sodium caprate tablet with approximately 10 mg derivative (Example 33)), this compound gave a bioavailability of 2.4%.
Regarding `CC[C@H](C)[C@H](NC(=O)[C@H](Cc1ccccc1)NC(=O)[C@H](CCC(=O)O)NC(=O)[C@H](CCCNC(=N)N)NC(=O)[C@H](C)NC(=O)[C@H](C)NC(=O)[C@H](CCC(N)=O)NC(=O)[C@H](CCC(=O)O)NC(=O)[C@H](CCC(=O)O)NC(=O)[C@H](CC(C)C)NC(=O)[C@H](Cc1ccc(O)cc1)NC(=O)[C@H](CO)NC(=O)[C@H](CO)NC(=O)[C@@H](NC(=O)[C@H](CC(=O)O)NC(=O)[C@H](CO)NC(=O)[C@@H](NC(=O)[C@H](Cc1ccccc1)NC(=O)[C@@H](NC(=O)CNC(=O)[C@H](CCC(=O)O)NC(=O)C(C)(C)NC(=O)[C@@H](N)Cc1c[nH]cn1)[C@@H](C)O)[C@@H](C)O)C(C)C)C(=O)N[C@@H](C)C(=O)N[C@@H](Cc1c[nH]c2ccccc12)C(=O)N[C@@H](CC(C)C)C(=O)N[C@H](C(=O)N[C@@H](CCCNC(=N)N)C(=O)NCC(=O)N[C@@H](CCCCNC(=O)COCCOCCNC(=O)COCCOCCNC(=O)CC[C@H](NC(=O)CCCCCCCCCOc1cccc(C(=O)O)c1)C(=O)O)C(=O)N[C@@H](CCCCNC(=O)COCCOCCNC(=O)COCCOCCNC(=O)CC[C@H](NC(=O)CCCCCCCCCOc1cccc(C(=O)O)c1)C(=O)O)C(=O)O)C(C)C` [Example 15, N{Epsilon-36}-[2-[2-[2-[[2-[2-[2-[[(4S)-4-carboxy-4-[10-(3-carboxyphenoxy)decanoylamino]butanoyl]amino]ethoxy]ethoxy]acetyl]amino]ethoxy]ethoxy]acetyl], N{Epsilon-37}-[2-[2-[2-[[2-[2-[2-[[(4S)-4-carboxy-4-[10-(3-carboxyphenoxy)decanoylamino]butanoyl]amino]ethoxy]ethoxy]acetyl]amino]ethoxy]ethoxy]acetyl]-[Aib8,Glu22,Arg26,Arg34,Lys36,Lys37]-GLP-1-(7-37)-peptide], the EC50 in data set [1] (EC50/pM (0% HSA), 0% HSA) worked out at 6.1 pM; in data set [1] (setting [4]), 44 pM. Also, the half-life in data set [2] is 144 h; in data set [3], 111 h.

The term EC50 denotes the concentration that produces a half-maximal response. Low readings indicate higher potency in that assay, high ones lower potency in that assay. Usually bioavailability stands for the share of a dose that reaches the circulation, judged against a reference dose that is usually intravenous. Lower therefore signals poor availability.
